What all share (format): in vivo
Assay [1] concerns SPF grade male C57BL/6J mice. Description: Mouse open field test. The settings on record: 3.33 mg/kg by gavage daily for one month; 6 minutes; x ± SE.
Procedure: The test is performed in an open field box with a length of 50 cm, a width of 50 cm, and a depth of 50 cm. The bottom surface of the open field box is equally divided into 9 squares, the area right in the middle is a central area, and the remaining areas are peripheral areas. The bottom and four sides of the open field box are all white. The test is performed in a quiet and weak red light environment. […] The total movement distance of the mice, the movement distance in the central area and the number of standing-uprights are recorded.
The subject of assay [2] is SPF grade male C57BL/6J mice. Kind of assay: Mouse forced swimming test (Embodiment 9). The settings on record: 3.33 mg/kg by gavage daily for one month, 5 minutes formal test, x ± SE. On the procedure:
(§1) 72 SPF grade male C57BL/6J mice which are 20±2 g in weight are selected. 6 mice are kept in each cage, free to forage and drink, and kept in a room with controlled light, temperature and humidity: the temperature is 21° C.±2° C., the humidity is 50%±10%, and the light and dark cycle is 12 hours/12 hours (light on at 20:00, light off at 8:00). All animal experiments are carried out in accordance with the guidelines on laboratory animal welfare and use issued by NIH.
(§2) After arrival, the mice are allowed to acclimate for one week before entering experiments.
(§3) The mice in the normal group are given the same volume of purified water by gavage, and the gavage doses for the mice in other groups are shown in the result tables. The mice are treated by gavage at a fixed time (9:00) every morning with a gavage volume of 0.1 mL·10 g^−1, and the administration is lasted for one month. A behavioral test is performed 1 hour after the last gavage.
When forced to swim, all the animals are respectively put in a plexiglass cylinder with a water temperature of 23° C.±1° C. and a water depth of 20 cm. After 15 minutes, the animals are transferred to a dry environment with a temperature of 30° C. and kept for 30 minutes (pretest). After 24 hours, the mice are put into the plexiglass cylinder again and kept for 5 minutes (formal test). A video camera is used during the test for recording. […]

Assay [3] deals with SPF grade male C57BL/6J mice. Description: Mouse tail suspension test. To be noted: 3.33 mg/kg by gavage daily for one month, last 4 minutes of 6 minutes, x ± SE. Here is the method:
as §1, §2, §3
In the tail suspension test, medical tape is used to suspend each mouse at ⅓ of the tail tip on a tail suspension device. The mice are suspended vertically with the heads facing camera lens, and are about 30 cm above the ground. The immobility time of each group of mice in the tail suspension test is recorded by a video camera for 6 minutes, and the tail suspension immobility time of the mice is calculated according to the last 4 minutes. […]

From patent publication US11642388B2, “Antidepressant compound preparation and preparation method thereof” (Chenland Nutritionals Inc., priority 2020, dated 2023) come the findings set out here.

In the case of `CNCCC(Oc1ccc(C(F)(F)F)cc1)c1ccccc1` (stereo not drawn) [Fluoxetine, fluoxetine], the Number of standing-uprights in assay [1] is recorded as 29.20 ± 2.133. This compound also had a Total movement distance in assay [1] of 18435 ± 950.6 mm. Moreover, the entries for the “Number of floating immobilities” value in assay [2] and in assay [2] (listed as fluoxetine) were 54.64 ± 2.704 and “significantly lower”, respectively. Besides, the “Tail suspension immobility time” value is 59.62 ± 6.270 s in assay [3] and “significantly shorter” in assay [3] (listed as fluoxetine).
